Earlier results in patent publication US20070259967A1, “Methods of Diagnosis” (priority 2004, published 2007).

Tests used:
[1] = amphetamine administered to children with ADHD; Zametkin et al. 1984
[2] = target: T1, Platelet MAO-B (Homo sapiens, UniProt P27338); settings: 0.24 mM pargyline added as blank; 20 μM PEA, 37° C., 30 minutes; method from Zhou et al.
T1 construct: the platelet pellet was resuspended with saline to obtain a concentration of 107 platelets/ml and then sonicated for 10 seconds; from tissue; host or cells: blood platelets (platelet rich plasma from fasting venous blood)
T1 sequence (P27338 1-520): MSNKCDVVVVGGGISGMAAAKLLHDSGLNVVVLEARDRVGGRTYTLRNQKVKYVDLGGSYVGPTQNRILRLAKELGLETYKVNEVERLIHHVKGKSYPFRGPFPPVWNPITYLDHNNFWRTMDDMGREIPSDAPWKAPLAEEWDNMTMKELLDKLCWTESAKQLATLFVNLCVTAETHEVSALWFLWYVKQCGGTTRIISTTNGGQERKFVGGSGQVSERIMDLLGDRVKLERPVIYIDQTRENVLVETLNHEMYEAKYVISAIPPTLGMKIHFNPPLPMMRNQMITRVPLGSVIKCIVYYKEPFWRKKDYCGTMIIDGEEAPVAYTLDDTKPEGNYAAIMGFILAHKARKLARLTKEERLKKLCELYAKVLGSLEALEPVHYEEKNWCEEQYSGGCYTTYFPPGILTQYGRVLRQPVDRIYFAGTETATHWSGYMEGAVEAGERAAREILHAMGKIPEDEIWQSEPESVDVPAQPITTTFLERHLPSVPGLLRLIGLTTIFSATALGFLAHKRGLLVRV

[3] = majority of the cited clinical studies of selegiline in ADHD

For `CC(N)Cc1ccccc1` (stereo not drawn) [amphetamine], the “increase in the excretion of urinary phenylethylamine (PEA)” value [1] is listed as 1600%.

In the case of `C#CCN(C)Cc1ccccc1` [pargyline], the “production of PAA (phenylacetic acid)” value [2] is given as “no production of PAA”.

In the case of `C#CCN(C)[C@H](C)Cc1ccccc1.Cl` [selegiline], the “benefit to ADHD patients compared with psycho-stimulant treatment” value [3] is given as “less benefit to the patients than psycho-stimulant treatment”.
